Assay results: patent publication EP4342487A2, “PHARMACEUTICAL COMPOSITION COMPRISING GIP DERIVATIVE OR LONG-ACTING CONJUGATE THEREOF FOR PREVENTING OR TREATING PULMONARY DISEASE” (Hanmi Pharm. Co., Ltd., priority 2021, dated 2022)

Tests used:
Format in all cases: cell-based, human
THP-1 cell line [1] = experiment: Anti-inflammatory effect in LPS-induced THP-1 cells, mRNA level (qPCR); conditions: THP-1, 1 µg/mL LPS; native GIP 10 µM, long-acting GIP derivative 1 or 10 µM; FIG. 2A
Description: To confirm the anti-inflammatory effect of the long-acting GIP derivative on COPD in vitro, a human monocyte/macrophage cell line, THP-1, was used. Macrophages are known to induce the progression of inflammation by secreting cytokines and chemokines at the initial stage of infection and mobilizing other immune cells.
The THP-1 cell line was cultured in a RPMI 1640 medium supplemented with 10% fetal bovine serum (FBS), 100 µg/mL streptomycin, 100 U/mL penicillin, and 0.05 mM β-mercaptoethanol, at a temperature of 37 °C in 5% carbon dioxide conditions. An inflammatory response was induced by adding 1 µg/mL of lipopolysaccharide (LPS) to the cell line, and the effect on the inflammatory response by LPS when treated with native GIP and long-acting GIP derivatives was confirmed at the mRNA level. The native GIP was added at the concentration 10 µM, and the long-acting GIP derivative was diluted at a concentration of 1 or 10 µM and added. As the long-acting GIP derivative, the long-acting GIP conjugate (SEQ ID NO: 17) prepared in Example 3 was used.
RNA was isolated from the THP-1 cell line after the treatment was completed by using the RNeasy Mini Kit (Qiagen, US), and cDNA was synthesized using the iScript™ cDNA Synthesis Kit (Bio-rad, US). […]

THP-1 cell line [2] = experiment: Inflammation-related cytokines in the medium of PMA and LPS-induced THP-1 cells (ELISA); conditions: THP-1, 150 nm PMA and 0.1 µg/mL LPS, native GIP 1 µM, long-acting GIP derivative 0.1 µM or 1 µM, FIG. 2B
Description: Additionally, in order to measure the concentrations of the inflammation-related cytokines IL-6, IL-12/23 p40, IL-1β, and TNF-α in the medium of the THP-1 cell line, 150 nm of phorbol 12-myristate 13-acetate (PMA) and 0.1 µg/mL of LPS were added thereto to induce an inflammatory reaction, and the cells were treated with the native GIP and the long-acting GIP derivative: the native GIP was used at a concentration of 1 µM and the long-acting GIP derivative was diluted to a concentration of 0.1 µM or 1 µM. As the medium, Human IL-6 ELISA Kit (Abcam, US), Human IL-12/23 p40 ELISA Kit (Abcam, US), Human IL-1beta ELISA Kit (Abcam, US), and Human TNF alpha ELISA Kit (Abcam, US)were used for quantification.

A549 cell line = experiment: Inflammation and EMT in A549 cells treated with TGF-β1 and LPS (qPCR); conditions: native GIP 10 µM, long-acting GIP derivative 1 or 10 µM
Description: The A549 cell line, a human alveolar epithelial cell, was used to confirm the inflammatory and fibrosis amelioration effect of long-acting GIP derivatives on COPD in vitro. The purpose of this experiment was to determine the effect of alveolar epithelial cells on epithelial mesenchymal transition (EMT), which is known to be important in the pulmonary fibrosis process.
The A549 cell line was cultured in a F-12K medium supplemented with 10% fetal bovine serum (FBS), 100 µg/mL streptomycin, and 100 U/mL penicillin at a temperature of 37 °C and in 5% carbon dioxide conditions. Cell lines were sequentially treated with TGF-β1 and LPS to induce inflammatory responses and EMT. The native GIP was added at the concentration 10 µM, and the long-acting GIP derivative was diluted at a concentration of 1 or 10 µM and added. As the long-acting GIP derivative, the long-acting GIP conjugate (SEQ ID NO: 17) prepared in Example 3 was used.
RNA was isolated from the A549 cell line after the treatment was completed by using the RNeasy Mini Kit (Qiagen, US), and cDNA was synthesized using the iScript™ cDNA Synthesis Kit (Bio-rad, US). Regarding the synthesized cDNA, the expression level of inflammation and EMT-related genes was confirmed by using the QuantStudio 6 Flex Real-Time PCR System (Applied Biosystems, US). Delta Delta Ct method was used, and beta-actin was used as a housekeeping gene. […]

**Q.** Which results are given for “native GIP: hormone composed of 42 amino acids secreted from the K cells of the small intestine (YAEGTFISDYSIAMDKIHQQDFVNWLLAQKGKKNDWKHNITQ; Gastric inhibitory polypeptide; UniProt P09681 52-93, looked up)”?
**A.** relative expression levels of inflammation-related genes IL-6, IL-12, IL-1β, and TNF-α (THP-1 cell line [1]): decreased; concentrations of the inflammation-related cytokines IL-6, IL-12/23 p40, IL-1β, and TNF-α in the medium (THP-1 cell line [2]): decreased; relative expression levels of inflammation-related genes IL-6, IL-12, and TNF-α (A549 cell line; FIG. 3A): significantly decreased; relative expression levels of EMT marker fibronectin, Col1α1, and Col3α1 (A549 cell line; FIG. 3B): decreased
